{"source": "patent US20250064773A1", "about": "“TARGETING ERO1 ALPHA WITH AURONE DERIVATIVES” (West Virginia University Board of Governors on behalf of …, priority 2021, published 2025)", "key": {"MAO-B": {"molecular_target": "T1, MAO-B (Homo sapiens, UniProt P27338)", "T1 sequence (P27338 1-520)": "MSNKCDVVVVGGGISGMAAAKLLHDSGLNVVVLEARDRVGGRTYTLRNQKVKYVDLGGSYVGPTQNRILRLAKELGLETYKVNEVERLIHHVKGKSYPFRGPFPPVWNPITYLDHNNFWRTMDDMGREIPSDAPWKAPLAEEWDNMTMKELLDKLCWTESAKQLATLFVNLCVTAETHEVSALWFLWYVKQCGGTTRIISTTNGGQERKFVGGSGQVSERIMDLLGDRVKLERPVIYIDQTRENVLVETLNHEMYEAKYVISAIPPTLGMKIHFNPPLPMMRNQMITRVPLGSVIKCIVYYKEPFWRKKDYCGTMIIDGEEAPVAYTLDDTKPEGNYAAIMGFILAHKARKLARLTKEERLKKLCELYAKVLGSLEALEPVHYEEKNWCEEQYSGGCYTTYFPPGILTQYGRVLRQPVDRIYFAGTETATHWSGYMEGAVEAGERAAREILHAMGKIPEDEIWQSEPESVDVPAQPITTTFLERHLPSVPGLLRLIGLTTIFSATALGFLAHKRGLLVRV", "conditions": "cited from earlier work"}, "[1]": {"tested_on": "PC-9 ERO1α knockout clones", "assay": "Soft agar clonogenic assay, PC-9 ERO1α knockout clones", "type": "cell-based", "conditions": "14 days, 3.75-15 μM", "experimental": "We utilized an MTT assay to determine the potency of the compounds for inhibiting cell growth. […] We next asked whether T151742 induced inhibition of cell growth was dependent on ERO1α expression. As shown in FIG. 6C two ERO1α deleted clones in the PC-9 cell line were isolated. Using an MTT assay to determine overall cellar viability, a non-targeted control (scramble), and both ERO1α knockout clones was subjected to treatment with T151742 for 72 hours (See FIG. 6D). […] Though only slight differences were observed between T151742 and EN-460 we tested the effects of these compounds in a clonogenic assay which is a better test for inhibition of self-renewal.\nFIG. 7A and FIG. 7B show 1000 cells/well were plated in a 12-well plate in triplicate with either 0.5% DMSO, T151742, or EN-460 and allowed to form colonies for 14 days. Colonies were subsequently stained with 0.01% Crystal Violet, imaged, and quantified using ImageJ. […] Colonies were stained with 0.01% Crystal Violet, imaged, and quantified using ImageJ.\nCell Lines: PC-9 cell line used was obtained from Sigma Aldrich and grown in RPMI 1640 medium with 10% fetal bovine serum and 1% penicillin/streptomycin. […] Plate was then read on the BioTek Cytation 5 at 530/590 nm. […] Plate was then read at 570 nm. […] Images were then quantified using ImageJ. […]"}, "purified human ERO1α": {"molecular_target": "T2, purified human ERO1α (Homo sapiens, UniProt Q96HE7, C104A/C131A/C166A)", "T2 construct": "made in house", "T2 sequence (Q96HE7 22-468 C104A/C131A/C166A)": "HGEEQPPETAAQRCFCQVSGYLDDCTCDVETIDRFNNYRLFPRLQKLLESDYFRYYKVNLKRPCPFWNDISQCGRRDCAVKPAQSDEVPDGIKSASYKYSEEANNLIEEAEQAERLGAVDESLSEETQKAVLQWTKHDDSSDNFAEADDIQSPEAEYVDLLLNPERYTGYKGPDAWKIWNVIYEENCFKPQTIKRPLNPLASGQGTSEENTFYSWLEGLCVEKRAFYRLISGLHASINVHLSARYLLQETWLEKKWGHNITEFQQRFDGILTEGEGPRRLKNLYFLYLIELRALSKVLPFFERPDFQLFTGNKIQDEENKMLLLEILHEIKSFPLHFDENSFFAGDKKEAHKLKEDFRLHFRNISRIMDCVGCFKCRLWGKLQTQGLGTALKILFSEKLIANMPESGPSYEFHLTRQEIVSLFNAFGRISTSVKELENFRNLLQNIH", "assay": "Recombinant ERO1α enzyme assay (Amplex Red)", "type": "biochemical", "conditions": "ratio of enzyme IC50 values", "experimental": "Based on previous work which established an aurone chemical class of compounds as FAD containing enzyme inhibitors^37, we evaluated sulfuretin analogs for ERO1α enzyme inhibition.\nQuantification of enzymatic activity of ERO1α was performed using the Amplex Red as previously described^6."}}}
{"molecule": "CN(C)c1ccc(/C=C2\\Oc3cc(O)ccc3C2=O)cc1", "note": "[Compound T151742]", "values": [{"measurement": "inhibition of / activity against MAO-B", "setting": "MAO-B", "result": "showed activity"}, {"measurement": "sensitivity of ERO1α knockout clones in clonogenic assay", "setting": "[1]", "result": "completely resistant"}, {"measurement": "fold more potent compared to EN-460", "setting": "purified human ERO1α", "result": "approximately 2 fold"}]}
